Assay results published in ChEMBL document CHEMBL1201862, “PubChem BioAssay data set” (2004).
Active and inactive are the calls of the source.

Tests used:
[1] = target: T1, Small ubiquitin-related modifier 1 (Homo sapiens, UniProt P63165); assay: SUMO1 protein interaction blockers, potency – biochemical, fluorescence polarization, uHTS hits, dose response (AID 624382); type: functional; conditions: read-out: IC50_Mean
[2] = target: T1, Small ubiquitin-related modifier 1; assay: SUMO1 protein-protein binding blockers, potency – biochemical, FRET, dose response (AID 624383); type: functional; conditions: read-out: IC50_Mean
[3] = target: T2, Short transient receptor potential channel 4 (Mus musculus, UniProt Q9QUQ5); assay: calcium entry via TRPC4 opening agents – cell-based, HEK293 TRPC4/mu-opioid, Fluo-4 calcium, dose response (AID 434937); type: functional
T2 sequence (Q9QUQ5 whole entry): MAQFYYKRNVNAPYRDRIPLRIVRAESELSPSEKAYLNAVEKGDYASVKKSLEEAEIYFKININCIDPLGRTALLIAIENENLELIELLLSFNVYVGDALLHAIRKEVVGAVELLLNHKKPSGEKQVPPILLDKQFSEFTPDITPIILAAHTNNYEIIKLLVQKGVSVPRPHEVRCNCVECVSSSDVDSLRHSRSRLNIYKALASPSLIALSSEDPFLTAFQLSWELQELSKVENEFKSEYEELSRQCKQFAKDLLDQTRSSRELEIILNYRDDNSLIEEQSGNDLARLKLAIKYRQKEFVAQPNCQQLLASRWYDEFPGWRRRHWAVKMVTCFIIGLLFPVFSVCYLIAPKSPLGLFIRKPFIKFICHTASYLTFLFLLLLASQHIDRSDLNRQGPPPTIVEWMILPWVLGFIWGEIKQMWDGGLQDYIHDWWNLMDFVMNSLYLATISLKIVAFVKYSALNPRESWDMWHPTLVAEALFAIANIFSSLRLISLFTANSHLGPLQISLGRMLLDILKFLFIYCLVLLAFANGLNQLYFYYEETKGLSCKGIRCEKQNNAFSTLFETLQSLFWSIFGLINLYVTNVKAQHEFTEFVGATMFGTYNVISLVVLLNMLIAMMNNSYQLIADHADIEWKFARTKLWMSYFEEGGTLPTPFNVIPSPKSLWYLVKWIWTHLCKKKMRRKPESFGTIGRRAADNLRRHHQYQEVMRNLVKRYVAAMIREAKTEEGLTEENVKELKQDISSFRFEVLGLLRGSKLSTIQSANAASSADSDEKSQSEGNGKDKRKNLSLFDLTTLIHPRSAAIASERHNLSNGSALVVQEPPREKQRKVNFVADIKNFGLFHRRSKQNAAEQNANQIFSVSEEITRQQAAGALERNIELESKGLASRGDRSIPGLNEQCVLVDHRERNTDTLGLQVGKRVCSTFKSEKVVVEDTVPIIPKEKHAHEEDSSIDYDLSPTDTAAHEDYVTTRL

Leucine aminopeptidase = target: T3, Leucine aminopeptidase (Plasmodium falciparum 3D7, UniProt Q8IL11); assay: P. falciparum M17LAP inhibitors, primary screen, biochemical, fluorogenic H-Leu-NHMec substrate, 1536-well (AID 1619); type: functional
T3 sequence (Q8IL11 whole entry): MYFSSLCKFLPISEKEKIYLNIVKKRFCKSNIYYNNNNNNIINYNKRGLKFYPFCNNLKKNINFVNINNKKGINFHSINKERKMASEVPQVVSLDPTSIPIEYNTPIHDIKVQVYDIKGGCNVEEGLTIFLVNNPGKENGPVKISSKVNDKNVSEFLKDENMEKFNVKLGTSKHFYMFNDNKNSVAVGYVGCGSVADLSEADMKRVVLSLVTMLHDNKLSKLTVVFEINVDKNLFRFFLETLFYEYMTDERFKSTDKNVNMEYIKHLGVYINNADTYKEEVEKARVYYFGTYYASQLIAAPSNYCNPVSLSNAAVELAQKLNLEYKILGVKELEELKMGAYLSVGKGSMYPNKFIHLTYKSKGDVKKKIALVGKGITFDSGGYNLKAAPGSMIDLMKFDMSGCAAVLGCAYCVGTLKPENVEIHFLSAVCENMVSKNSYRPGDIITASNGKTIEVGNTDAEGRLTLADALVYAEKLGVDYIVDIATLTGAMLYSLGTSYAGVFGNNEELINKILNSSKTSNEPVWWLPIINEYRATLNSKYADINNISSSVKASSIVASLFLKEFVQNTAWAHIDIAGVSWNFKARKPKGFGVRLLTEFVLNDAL

[4] = viability of PTEN-deleted HCT116 cells – cell-based, HCT116 PTEN knockout, dose response (AID 1047); type: functional;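 note: HCT116 colon tumor cells with PTEN knocked out; cells exposed to compound for 60 hours before readout; potency for loss of cell viability measured by luminescence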
[5] = viability of HCT116 lacking mutant beta-catenin – cell-based, human colon tumor, dose response (AID 1045); type: functional;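 note: HCT116 colon tumor cells with beta catenin knocked out; cells exposed to compound for 60 hours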
Vero = assay: viability of Vero cells under compound – cytotoxicity control for flavivirus capping enzyme inhibitors (AID 588742); type: functional; conditions: Chlorocebus sabaeus
[6] = target: T4, Long-chain-fatty-acid--AMP ligase FadD28 (Mycobacterium tuberculosis, UniProt P9WQ59); assay: Fluorescence polarization aasay to screen for inhibitors that compete for the binding of FadD28 to a bisubstrate Measured in Biochemical System Using Plate Reader - 2147-01_Inhibitor_Dose_CherryPick_Activity.; type: functional, Mycobacterium tuberculosis H37Rv
T4 sequence (P9WQ59 whole entry): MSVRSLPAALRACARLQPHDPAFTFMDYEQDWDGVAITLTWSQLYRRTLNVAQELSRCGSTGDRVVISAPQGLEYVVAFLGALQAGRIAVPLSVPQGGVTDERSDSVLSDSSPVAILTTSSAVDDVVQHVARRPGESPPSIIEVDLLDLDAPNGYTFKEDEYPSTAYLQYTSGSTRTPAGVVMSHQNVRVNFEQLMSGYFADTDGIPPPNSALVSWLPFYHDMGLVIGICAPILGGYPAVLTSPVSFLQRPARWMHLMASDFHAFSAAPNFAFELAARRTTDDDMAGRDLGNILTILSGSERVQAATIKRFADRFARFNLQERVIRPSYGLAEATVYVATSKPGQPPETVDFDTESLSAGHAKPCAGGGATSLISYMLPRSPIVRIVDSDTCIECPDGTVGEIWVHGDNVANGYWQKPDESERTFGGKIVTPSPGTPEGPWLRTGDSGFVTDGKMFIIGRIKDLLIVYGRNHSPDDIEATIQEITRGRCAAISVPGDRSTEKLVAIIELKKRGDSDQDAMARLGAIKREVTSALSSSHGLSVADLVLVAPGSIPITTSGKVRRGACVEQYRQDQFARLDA

[7] = target: T5, Adenosylmethionine-8-amino-7-oxononanoate aminotransferase (Mycobacterium tuberculosis, UniProt P9WQ81); assay: Mycobacterium tuberculosis BioA enzyme inhibitor Measured in Biochemical System Using Plate Reader - 2163-02_Inhibitor_Dose_CherryPick_Activity.; type: functional, Mycobacterium tuberculosis UT205
T5 sequence (P9WQ81 whole entry): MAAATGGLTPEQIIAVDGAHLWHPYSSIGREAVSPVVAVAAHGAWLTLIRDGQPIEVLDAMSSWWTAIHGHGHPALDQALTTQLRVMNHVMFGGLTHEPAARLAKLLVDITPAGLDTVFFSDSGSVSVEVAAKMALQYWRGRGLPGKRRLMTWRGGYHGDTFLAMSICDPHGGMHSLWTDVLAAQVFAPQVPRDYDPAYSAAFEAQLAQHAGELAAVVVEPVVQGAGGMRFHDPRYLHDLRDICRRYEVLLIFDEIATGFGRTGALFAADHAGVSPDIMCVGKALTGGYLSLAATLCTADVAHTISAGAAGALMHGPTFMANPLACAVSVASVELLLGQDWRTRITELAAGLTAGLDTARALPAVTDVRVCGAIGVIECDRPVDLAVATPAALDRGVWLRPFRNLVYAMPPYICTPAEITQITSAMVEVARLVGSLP

[8] = target: T6, High affinity choline transporter 1 (Homo sapiens, UniProt Q9GZV3); assay: human choline transporter blockers, potency – cell-based, 5-point CRC, membrane potential dye, dose response (AID 504840); type: functional
T6 sequence (Q9GZV3 whole entry): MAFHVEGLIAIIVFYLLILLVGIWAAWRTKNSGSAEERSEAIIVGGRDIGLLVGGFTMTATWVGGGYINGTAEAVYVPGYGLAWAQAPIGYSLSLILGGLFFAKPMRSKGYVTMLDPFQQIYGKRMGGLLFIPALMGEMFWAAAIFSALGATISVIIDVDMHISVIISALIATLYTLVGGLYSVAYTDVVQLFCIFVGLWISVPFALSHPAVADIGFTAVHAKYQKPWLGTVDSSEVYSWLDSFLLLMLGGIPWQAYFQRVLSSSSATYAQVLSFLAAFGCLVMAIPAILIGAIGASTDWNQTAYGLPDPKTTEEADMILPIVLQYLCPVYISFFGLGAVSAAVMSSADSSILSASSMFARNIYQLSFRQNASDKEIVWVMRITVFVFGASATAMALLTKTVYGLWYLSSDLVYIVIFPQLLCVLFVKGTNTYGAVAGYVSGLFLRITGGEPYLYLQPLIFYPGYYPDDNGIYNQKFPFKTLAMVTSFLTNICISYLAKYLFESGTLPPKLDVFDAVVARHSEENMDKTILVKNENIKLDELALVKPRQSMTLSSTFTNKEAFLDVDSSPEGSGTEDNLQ

Genome polyprotein = Genome polyprotein (dengue virus type 2, UniProt P29990); assay: flavivirus cap methylation enzyme inhibition – biochemical, confirmation dose response, primary screen (AID 588689); type: functional
Chain of Genome polyprotein (P29990 2492-3391 limits assumed): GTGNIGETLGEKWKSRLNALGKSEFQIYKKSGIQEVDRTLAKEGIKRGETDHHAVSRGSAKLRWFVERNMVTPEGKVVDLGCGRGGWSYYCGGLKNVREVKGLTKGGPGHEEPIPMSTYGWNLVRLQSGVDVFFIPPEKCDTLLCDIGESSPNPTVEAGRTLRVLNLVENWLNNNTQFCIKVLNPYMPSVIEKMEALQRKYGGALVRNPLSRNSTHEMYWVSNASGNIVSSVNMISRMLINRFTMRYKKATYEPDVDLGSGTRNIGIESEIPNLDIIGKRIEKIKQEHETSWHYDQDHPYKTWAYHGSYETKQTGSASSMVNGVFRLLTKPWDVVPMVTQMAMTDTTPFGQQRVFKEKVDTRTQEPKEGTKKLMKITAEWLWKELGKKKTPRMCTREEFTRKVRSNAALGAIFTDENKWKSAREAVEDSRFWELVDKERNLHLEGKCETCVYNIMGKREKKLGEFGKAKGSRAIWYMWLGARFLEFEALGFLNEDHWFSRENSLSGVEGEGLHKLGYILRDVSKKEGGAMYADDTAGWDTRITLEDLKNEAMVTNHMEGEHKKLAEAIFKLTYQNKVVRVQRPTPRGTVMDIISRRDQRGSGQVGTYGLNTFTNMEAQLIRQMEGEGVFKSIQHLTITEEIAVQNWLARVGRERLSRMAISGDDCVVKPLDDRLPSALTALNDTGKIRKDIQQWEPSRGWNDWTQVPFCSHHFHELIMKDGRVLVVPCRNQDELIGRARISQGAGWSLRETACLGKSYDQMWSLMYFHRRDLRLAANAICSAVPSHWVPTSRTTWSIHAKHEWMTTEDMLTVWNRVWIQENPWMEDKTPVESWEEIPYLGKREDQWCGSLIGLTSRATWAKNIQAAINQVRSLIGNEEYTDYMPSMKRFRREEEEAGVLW

Fatty acid synthase [9] = target: T7, Fatty acid synthase (Homo sapiens, UniProt P49327); assay: inhibition of human FAS-TE enzyme activity – biochemical, endpoint fluorescence intensity, uHTS hits, dose response (AID 624327); type: functional;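 note: fluorescence from hydrolysis of an O-methyl fluorescein acyl ester substrate by the enzyme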
T7 sequence (P49327 whole entry): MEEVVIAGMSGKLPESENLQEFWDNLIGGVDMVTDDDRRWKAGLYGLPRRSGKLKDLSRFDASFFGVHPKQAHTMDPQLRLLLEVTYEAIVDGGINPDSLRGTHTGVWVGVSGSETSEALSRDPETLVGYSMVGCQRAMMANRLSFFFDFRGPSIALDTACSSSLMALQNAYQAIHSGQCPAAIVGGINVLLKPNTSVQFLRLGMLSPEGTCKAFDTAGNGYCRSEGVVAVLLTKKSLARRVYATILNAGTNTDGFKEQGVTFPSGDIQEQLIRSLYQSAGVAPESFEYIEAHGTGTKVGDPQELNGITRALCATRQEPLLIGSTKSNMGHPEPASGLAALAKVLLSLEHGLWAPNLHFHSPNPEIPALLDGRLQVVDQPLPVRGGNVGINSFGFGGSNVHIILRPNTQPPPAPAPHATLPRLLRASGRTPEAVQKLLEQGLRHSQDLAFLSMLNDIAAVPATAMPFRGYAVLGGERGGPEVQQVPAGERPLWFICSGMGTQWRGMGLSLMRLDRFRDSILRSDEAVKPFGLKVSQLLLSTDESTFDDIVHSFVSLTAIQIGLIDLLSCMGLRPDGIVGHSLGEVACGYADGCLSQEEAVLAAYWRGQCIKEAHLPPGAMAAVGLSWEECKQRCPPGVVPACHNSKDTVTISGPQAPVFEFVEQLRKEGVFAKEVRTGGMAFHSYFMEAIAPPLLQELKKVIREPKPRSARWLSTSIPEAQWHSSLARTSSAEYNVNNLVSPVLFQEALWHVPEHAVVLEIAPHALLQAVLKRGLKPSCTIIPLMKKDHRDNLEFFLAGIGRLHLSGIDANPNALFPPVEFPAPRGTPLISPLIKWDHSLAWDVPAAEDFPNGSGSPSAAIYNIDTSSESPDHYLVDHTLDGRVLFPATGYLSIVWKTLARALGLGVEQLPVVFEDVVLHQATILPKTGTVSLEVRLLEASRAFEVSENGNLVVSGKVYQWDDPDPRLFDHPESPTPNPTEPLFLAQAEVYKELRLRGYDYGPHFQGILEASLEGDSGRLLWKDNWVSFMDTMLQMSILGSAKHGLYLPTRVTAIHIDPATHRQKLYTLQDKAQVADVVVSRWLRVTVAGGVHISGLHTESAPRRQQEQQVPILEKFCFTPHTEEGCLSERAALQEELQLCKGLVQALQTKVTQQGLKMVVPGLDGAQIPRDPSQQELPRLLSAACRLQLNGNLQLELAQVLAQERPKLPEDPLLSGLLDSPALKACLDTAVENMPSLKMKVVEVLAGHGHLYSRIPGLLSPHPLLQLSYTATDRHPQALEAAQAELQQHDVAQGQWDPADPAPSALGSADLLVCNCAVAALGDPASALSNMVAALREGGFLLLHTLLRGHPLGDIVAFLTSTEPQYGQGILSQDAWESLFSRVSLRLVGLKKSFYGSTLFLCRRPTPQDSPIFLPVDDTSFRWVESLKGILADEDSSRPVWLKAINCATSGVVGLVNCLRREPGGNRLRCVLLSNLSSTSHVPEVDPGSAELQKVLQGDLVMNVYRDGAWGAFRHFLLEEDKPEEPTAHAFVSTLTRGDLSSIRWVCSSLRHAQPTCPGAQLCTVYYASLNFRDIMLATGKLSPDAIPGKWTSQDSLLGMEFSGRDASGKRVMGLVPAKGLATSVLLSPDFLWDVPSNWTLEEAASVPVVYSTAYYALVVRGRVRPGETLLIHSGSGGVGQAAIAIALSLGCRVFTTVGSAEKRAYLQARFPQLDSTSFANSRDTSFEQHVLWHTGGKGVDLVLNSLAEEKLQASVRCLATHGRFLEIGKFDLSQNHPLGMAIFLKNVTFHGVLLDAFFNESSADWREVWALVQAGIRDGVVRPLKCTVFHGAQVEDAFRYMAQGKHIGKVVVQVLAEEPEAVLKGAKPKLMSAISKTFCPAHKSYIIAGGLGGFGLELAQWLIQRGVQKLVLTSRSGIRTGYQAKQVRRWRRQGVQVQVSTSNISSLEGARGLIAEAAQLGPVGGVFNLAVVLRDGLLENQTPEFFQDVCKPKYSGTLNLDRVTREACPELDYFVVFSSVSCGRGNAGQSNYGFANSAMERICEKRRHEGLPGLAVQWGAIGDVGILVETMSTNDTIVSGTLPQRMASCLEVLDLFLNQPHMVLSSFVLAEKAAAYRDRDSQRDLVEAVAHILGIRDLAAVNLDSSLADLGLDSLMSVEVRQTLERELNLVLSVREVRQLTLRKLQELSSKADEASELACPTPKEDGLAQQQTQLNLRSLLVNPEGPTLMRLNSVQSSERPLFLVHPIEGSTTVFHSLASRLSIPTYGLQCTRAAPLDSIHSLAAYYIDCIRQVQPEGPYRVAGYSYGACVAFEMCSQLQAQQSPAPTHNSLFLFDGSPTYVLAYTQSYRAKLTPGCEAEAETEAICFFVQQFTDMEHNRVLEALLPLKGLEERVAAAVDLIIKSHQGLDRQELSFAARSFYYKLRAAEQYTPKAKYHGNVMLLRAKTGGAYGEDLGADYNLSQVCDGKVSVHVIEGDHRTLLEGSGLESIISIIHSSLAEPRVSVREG

Fatty acid synthase [10] = target: T7, Fatty acid synthase; assay: inhibition of human FAS-TE enzyme activity – biochemical, kinetic fluorescence intensity, dose response (AID 624326); type: functional;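 note: rate of fluorescence rise from hydrolysis of a fluorogenic O-methyl fluorescein ester substrate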
Streptococcus = assay: GAS UMAA2166 growth inhibition – luminescence, BacTiterGlo, counter-screen for streptokinase expression inhibitor project, dose response (AID 1915); type: functional, organism-based;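 note: potency for reduction of bacterial viability or growth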
Streptokinase A = target: T8, Streptokinase A (Streptococcus pyogenes serotype M1, UniProt P10520); assay: viability-normalized secreted streptokinase activity reduction – plasminogen activation absorbance, OD405, dose response (AID 1914); type: functional, Streptococcus pyogenes M1 GAS;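 note: secreted streptokinase activity via plasminogen activation per viability signal from cell pellet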
T8 sequence (P10520 whole entry): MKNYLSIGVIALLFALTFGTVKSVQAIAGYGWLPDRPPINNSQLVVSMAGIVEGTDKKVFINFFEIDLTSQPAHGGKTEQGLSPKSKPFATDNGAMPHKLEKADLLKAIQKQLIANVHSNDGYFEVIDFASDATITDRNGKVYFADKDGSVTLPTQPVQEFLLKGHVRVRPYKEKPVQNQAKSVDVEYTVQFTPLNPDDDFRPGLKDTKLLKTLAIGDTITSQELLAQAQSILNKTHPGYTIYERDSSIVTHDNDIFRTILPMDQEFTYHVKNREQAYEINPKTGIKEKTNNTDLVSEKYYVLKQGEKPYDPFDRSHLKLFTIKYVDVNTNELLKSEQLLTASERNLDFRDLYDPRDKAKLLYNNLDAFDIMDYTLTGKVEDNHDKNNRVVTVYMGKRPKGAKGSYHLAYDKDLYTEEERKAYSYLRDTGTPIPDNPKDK

[11] = system: Streptococcus sp. 'group A'; assay: Streptococcus pyogenes SK(-)GAS viability under kanamycin – luminescence, BacTiterGlo, confirmation, counter-screen for streptokinase expression inhibitor project, dose response (AID 1900); type: functional, organism-based
[12] = fluconazole-exposed Candida albicans growth modulators – fluorescence, retest, confirmation (AID 2467); type: functional, cell-based
[13] = NIH-3T3 fibroblast cytotoxicity, dose response, cytotoxicity control, cell-based, fluorescence, Alamar Blue, secondary assay (AID 2327); type: functional;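 note: NIH-3T3 mouse fibroblasts cultured with fluconazole at 8 µg/mL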

T1 sequence (P63165 whole entry): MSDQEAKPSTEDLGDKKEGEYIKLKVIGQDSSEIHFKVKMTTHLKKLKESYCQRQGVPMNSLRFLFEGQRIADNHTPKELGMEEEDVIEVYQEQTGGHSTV

With `Cc1onc(-c2ccccc2)c1C(=O)NNC(=S)NC(=O)c1ccc(F)cc1` as the compound, how does the IC50 [1] read?
Its IC50 is > 66.6 µM (inactive).

And the IC50 [2]?
Its IC50 is 100 µM (inactive).

And the EC50 [3]?
The EC50 was 5.96 µM (active).

What about the IC50 (Leucine aminopeptidase) of the same compound?
Its IC50 is 79.4 µM (active).

For `CC(=O)Nc1ccc(S(=O)(=O)NCCSCc2c(Cl)cccc2Cl)cc1`, which EC50 [4] is on record?
Its EC50 is 61.4 µM (active).

And the EC50 [5]?
Its EC50 is 149 µM (active).

And the CC50 (Vero)?
Its CC50 is > 40 µM (active).

With `CC(=O)c1cccc(NC(=O)NC2CCCCCCC2)c1` as the compound, how does the AC50 [6] read?
The AC50 was > 100 µM (inactive).

Which AC50 [7] does the source give for `O=C(O)CCS(=O)(=O)c1nc(-c2cccs2)cc(C(F)(F)F)n1` here?
The AC50 was 15.6 µM (active).

What does the source list for `CCCn1nc(NS(=O)(=O)c2cccc3nonc23)c2cc3cccc(C)c3nc21`?
AC50 [6]: > 100 µM (inactive); IC50 [8]: 3.54 µM (active); IC50 (Genome polyprotein): 39.8 µM (active)

Which AC50 [7] does the source give for `CCOCCCNC(=O)CSc1nc2nc(C)c(Cc3ccccc3)c(C)n2n1` here?
Its AC50 is 2.18 µM (active).

For `O=C(CC(C(=O)O)c1ccc(Cl)cc1)c1ccc(Cl)c(Cl)c1` (centres undefined), which IC50 (Fatty acid synthase [9]) is on record?
Its IC50 is 2.11 µM (active).

What about the IC50 (Fatty acid synthase [10]) of the same compound?
Its IC50 is 4.21 µM (active).

Which results are given for `CCc1ccc(/C=C2\SC(=S)N(CCCC(=O)Nc3ccccc3C(=O)O)C2=O)cc1`?
EC50 (Streptococcus): 133 µM (active); EC50 (Streptokinase A): > 50 µM (not active); EC50 [11]: 1.9 µM (active); EC50 [12]: 2.37 µM (active); EC50 [13]: 6.89 µM (inconclusive); CC50 (Vero): > 40 µM (active); IC50 (Genome polyprotein): 30.8 µM (active)

What does the source list for `C=CCn1c(SCc2cc([N+](=O)[O-])cc3c2OCOC3)nc2cc(C(=O)O)ccc2c1=O`?
IC50 (Fatty acid synthase [9]): 2.57 µM (active); IC50 (Fatty acid synthase [10]): 1.6 µM (active)
